This note sets out measurements from patent US10301306B2, “Substituted dihydro-1H-pyrrolo[3,2-c]pyridin-4(5H)-ones as RIPK3 inhibitors” (BRISTOL-MYERS SQUIBB COMPANY, priority 2014, dated 2019).

The structures appear in SMILES notation. A value given as a limit tells only on which side of the number the result lay.

RIPK3, sequence (Q9Y572 whole entry, species assumed): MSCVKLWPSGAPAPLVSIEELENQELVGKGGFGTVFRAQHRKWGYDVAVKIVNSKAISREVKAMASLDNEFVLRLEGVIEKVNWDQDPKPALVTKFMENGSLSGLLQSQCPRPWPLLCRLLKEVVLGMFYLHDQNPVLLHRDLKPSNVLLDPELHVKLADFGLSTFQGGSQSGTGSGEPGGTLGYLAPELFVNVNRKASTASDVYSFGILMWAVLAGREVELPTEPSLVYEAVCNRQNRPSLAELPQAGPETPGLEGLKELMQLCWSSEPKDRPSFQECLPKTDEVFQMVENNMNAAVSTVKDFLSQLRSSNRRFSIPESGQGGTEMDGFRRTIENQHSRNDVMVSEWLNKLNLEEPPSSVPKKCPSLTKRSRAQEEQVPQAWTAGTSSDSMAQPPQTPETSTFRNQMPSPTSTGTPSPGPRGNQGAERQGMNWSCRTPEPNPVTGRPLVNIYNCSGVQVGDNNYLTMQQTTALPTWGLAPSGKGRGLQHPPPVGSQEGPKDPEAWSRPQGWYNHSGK

The first test has as its target RIPK3 (Homo sapiens (Human), UniProt Q9Y572). Put plainly: RIPK3 HTRF Kinase Assay. Type of test: binding. Conditions: RIPK3 1 nM; HTRF probe 23 nM; 60 min at room temperature; read-out: IC50 for Inhibition of RIPK3. For orientation: In TR-FRET formats the signal depends on donor and acceptor labels being close together.
For orientation: IC50 means the concentration at which inhibition is half-maximal. `Cc1noc(-c2ccc(Cn3c4c(c(-c5ccc(F)cc5)c3-c3ccncc3)C(=O)NCC4)cc2)n1` [Example 13, 3-(4-Fluorophenyl)-1-(4-(3-methyl-1,2,4-oxadiazol-5-yl)benzyl)-2-(pyridin-4-yl)-6,7-dihydro-1H-pyrrolo[3,2-c]pyridin-4(5H)-one]: the half-maximal inhibitory concentration (IC50) is less than 30 nM.
Still for that read-out and setting: for `O=C1NCCc2c1c(-c1ccc(F)cc1)c(-c1ccnc(NCCO)c1)n2Cc1ccc(C(F)(F)F)cc1F` [Example 146] the value was 31 to 100 nM; for `CC(c1ccccc1)n1c2c(c(-c3ccc(F)cc3)c1-c1ccncc1)C(=O)NCC2` (stereo not shown) [Example 36], 100 to 15000 nM.
As to `N#Cc1cccc(Cn2c3c(c(-c4ccc(F)cc4)c2-c2ccncc2)C(=O)NCC3)c1` [Example 2, 3-((3-(4-Fluorophenyl)-4-oxo-2-(pyridin-4-yl)-4,5,6,7-tetrahydro-1H-pyrrolo[3,2-c]pyridin-1-yl)methyl)benzonitrile], the IC50 was less than 30 nM.
For `CC(=O)Nc1cc(-c2c(-c3ccc(F)cc3)c3c(n2Cc2ccc(C)cc2)CCNC3=O)ccn1` [Example 4, N-(4-(3-(4-Fluorophenyl)-1-(4-methylbenzyl)-4-oxo-4,5,6,7-tetrahydro-1H-pyrrolo[3,2-c]pyridin-2-yl)pyridin-2-yl)acetamide], the IC50 is less than 30 nM.
Same read-out and setting: for `CC(C)C(=O)Nc1cc(-c2c(-c3ccc(F)cc3)c3c(n2CC2CCOCC2)CCNC3=O)ccn1` [Example 88] the value was 100 to 15000 nM; for `N#Cc1cc(F)ccc1Cn1c2c(c(-c3cccc(CO)c3)c1-c1ccncc1)C(=O)NCC2` [Example 134], less than 30 nM.
The same measure, in the same setting: in the case of `COc1ccc(-c2c3c(n(Cc4ccc(F)cc4C#N)c2-c2ccncc2)CCNC3=O)cc1OC` [Example 113] it was 100 to 15000 nM; in that of `O=C1NCCc2c1c(-c1cccc(C(F)(F)F)c1)c(-c1ccncc1)n2CC1CCOCC1` [Example 105], 100 to 15000 nM; in that of `N#Cc1cc(F)ccc1Cn1c2c(c(-c3ccoc3)c1-c1ccncc1)C(=O)NCC2` [Example 141], less than 30 nM.
The same measure, in the same setting: in the case of `COC(=O)c1cccc(-c2c3c(n(Cc4ccc(Cl)cc4F)c2-c2ccncc2)CCNC3=O)c1` [Example 167] it was 100 to 15000 nM.
Take `O=C1NCCc2c1c(-c1ccc(F)cc1)c(-c1ccncc1)n2CCCO` [Example 69]: the half-inhibitory concentration (IC50) lay in the range of 31 to 100 nM.
As to `N#Cc1cc(F)ccc1Cn1c2c(c(-c3ccc(F)cc3)c1-c1ccoc1)C(=O)NCC2` [Example 23], the IC50 lay within 100 to 15000 nM.
As to `CC(C)NC(=O)Cn1c2c(c(-c3ccc(F)cc3)c1-c1ccncc1)C(=O)NCC2` [Example 83], the IC50 lay within 100 to 15000 nM.
For `Cn1cc(-c2c3c(n(Cc4ccc(Cl)cc4F)c2-c2ccncc2)CCNC3=O)cn1` [Example 165], the IC50 lay in the range of 100 to 15000 nM.
Same read-out and setting: in the case of `O=C1NCCc2c1c(-c1ccc(F)cc1)c(-c1ccncc1)n2Cc1ccc(C(F)(F)F)cc1F` [Example 43] it was less than 30 nM; in that of `Cc1nc(Cn2c3c(c(-c4ccc(F)cc4)c2-c2ccncc2)C(=O)NCC3)no1` [Example 81], 31 to 100 nM; in that of `N#Cc1cc(F)ccc1Cn1c2c(c(-c3ccc4ncccc4c3)c1-c1ccncc1)C(=O)NCC2` [Example 116], 100 to 15000 nM.
The same measure, in the same setting: in the case of `Cc1ccc(-c2c3c(n(CC4CCOCC4)c2-c2ccncc2)CCNC3=O)c(C)c1` [Example 103] it was 100 to 15000 nM.
As for `O=C1NCCc2c1c(-c1ccc(F)cc1)c(-c1ccncc1)n2Cc1ccc(F)cc1` [Example 44], the IC50 was less than 30 nM.
On to `O=C1NCCc2c1c(-c1ccc(F)cc1)c(-c1ccncc1)n2Cc1nnc(C2CC2)s1` [Example 47], for which the IC50 fell in the range of 100 to 15000 nM.
Turning to `O=C1NCCc2c1c(-c1ccc(F)cc1)c(-c1ccncc1)n2Cc1ccc(C2CC2)cc1` [Example 52], the concentration for half-maximal inhibition (IC50) was in the range of 31 to 100 nM.
Regarding `N#Cc1ccc(Cn2c3c(c(-c4ccc(F)cc4)c2-c2ccncc2)C(=O)NCC3)cc1` [Example 28], the IC50 fell in the range of 31 to 100 nM.
For the compound `CC(C)Cn1c2c(c(-c3ccc(F)cc3)c1-c1ccncc1)C(=O)NCC2` [Example 58], the IC50 lay in the range of 31 to 100 nM.
With `N#Cc1cc(F)ccc1Cn1c2c(c(-c3cccc(Cl)c3Cl)c1-c1ccncc1)C(=O)NCC2` [Example 129], the IC50 lay within 31 to 100 nM.
On to `Cc1cc(Cn2c3c(c(-c4cccc(N)c4)c2-c2ccncc2)C(=O)NCC3)n(C)n1` [Example 174], for which the 50% inhibitory concentration (IC50) is 100 to 15000 nM.
Take `Cc1csc(-c2c3c(n(Cc4ccc(F)cc4C#N)c2-c2ccncc2)CCNC3=O)c1` [Example 142]: the half-inhibitory concentration (IC50) is less than 30 nM.
Still for that read-out and setting: in the case of `N#Cc1cc(F)ccc1Cn1c2c(c(-c3ccc(F)cc3)c1-c1ccsc1)C(=O)NCC2` [Example 25] it was 100 to 15000 nM; in that of `Cc1cc(Cn2c3c(c(-c4ccc(F)cc4)c2-c2ccncc2)C(=O)NCC3)n(C)n1` [Example 65], less than 30 nM; in that of `O=c1[nH]ccc2c1c(-c1ccc(F)cc1)c(-c1ccnc(Cl)c1)n2Cc1ccc(C(F)(F)F)cc1F` [Example 155, 2-(2-Chloropyridin-4-yl)-1-(2-fluoro-4-(trifluoromethyl)benzyl)-3-(4-fluorophenyl)-1H-pyrrolo[3,2-c]pyridin-4(5H)-one], 100 to 15000 nM.
Same read-out and setting: for `COc1cnccc1-c1c(-c2ccc(F)cc2)c2c(n1Cc1cc(C)nn1C)CCNC2=O` [Example 183] the value was less than 30 nM; for `Cc1cc(Cn2c3c(c(-c4cccc(NC(=O)OC(C)(C)C)c4)c2-c2ccnc(NC(=O)C4CC4)c2)C(=O)NCC3)n(C)n1` [Example 185, tert-Butyl (3-(2-(2-(cyclopropanecarboxamido)pyridin-4-yl)-1-((1,3-dimethyl-1H-pyrazol-5-yl)methyl)-4-oxo-4,5,6,7-tetrahydro-1H-pyrrolo[3,2-c]pyridin-3-yl)phenyl)carbamate], 100 to 15000 nM.
Same read-out and setting: in the case of `COC(=O)c1cccc(-c2c3c(n(Cc4cc(C)nn4C)c2-c2ccncc2)CCNC3=O)c1` [Example 172] it was 100 to 15000 nM.
`Cc1n[nH]cc1-c1c(-c2ccc(F)cc2)c2c(n1Cc1ccc(F)cc1C#N)CCNC2=O` [Example 1, 5-Fluoro-2-((3-(4-fluorophenyl)-2-(3-methyl-1H-pyrazol-4-yl)-4-oxo-4,5,6,7-tetrahydro-1H-pyrrolo[3,2-c]pyridin-1-yl)methyl)benzonitrile]: the IC50 lay within 100 to 15000 nM.
Same read-out and setting: for `N#Cc1cc(F)ccc1Cn1c2c(c(-c3ccc(F)cc3)c1-c1ccnc(Cl)c1)C(=O)NCC2` [Example 22] the value was 100 to 15000 nM.
As for `O=C1NCCc2c1c(-c1cnc3ccccc3c1)c(-c1ccncc1)n2CC1CCOCC1` [Example 111], the concentration for half-maximal inhibition (IC50) was in the range of 100 to 15000 nM.
Same read-out and setting: in the case of `Cc1cc(Cn2c3c(c(-c4cccc(NC(=O)c5ccccc5)c4)c2-c2ccncc2)C(=O)NCC3)n(C)n1` [Example 176] it was 100 to 15000 nM; in that of `N#Cc1ccc(Cn2c3c(c(-c4ccc(F)cc4)c2-c2ccncc2)C(=O)NCC3)cc1F` [Example 35], 31 to 100 nM.
Turning to `O=C1NCCc2c1c(-c1ccc(F)cc1)c(-c1ccncc1)n2Cc1nnc(C2CC2)o1` [Example 56], the IC50 fell in the range of 100 to 15000 nM.
Still for that read-out and setting: for `N#Cc1cc(F)ccc1Cn1c2c(c(-c3ccc(F)cc3)c1-c1ccncc1F)C(=O)NCC2` [Example 27] the value was less than 30 nM; for `N#Cc1cc(F)ccc1Cn1c2c(c(-c3ccc(F)cc3)c1-c1cncnc1)C(=O)NCC2` [Example 17], 100 to 15000 nM.
Same read-out and setting: in the case of `O=C1NCCc2c1c(-c1ccc(F)cc1)c(-c1ccnc(NC(=O)C3CC3)c1)n2Cc1ccc(C(F)(F)F)cc1F` [Example 8, N-(4-(1-(2-Fluoro-4-(trifluoromethyl)benzyl)-3-(4-fluorophenyl)-4-oxo-4,5,6,7-tetrahydro-1H-pyrrolo[3,2-c]pyridin-2-yl)pyridin-2-yl)cyclopropanecarboxamide] it was less than 30 nM; in that of `COc1cnccc1-c1c(-c2ccc(F)cc2)c2c(n1Cc1ccc(F)cc1C#N)CCNC2=O` [Example 15], 31 to 100 nM; in that of `N#Cc1cc(F)ccc1Cn1c2c(c(-c3ccc(C(F)(F)F)cc3)c1-c1ccncc1)C(=O)NCC2` [Example 9, 5-Fluoro-2-((4-oxo-2-(pyridin-4-yl)-3-(4-(trifluoromethyl)phenyl)-4,5,6,7-tetrahydro-1H-pyrrolo[3,2-c]pyridin-1-yl)methyl)benzonitrile], 31 to 100 nM.
The same measure, in the same setting: for `O=C1NCCc2c1c(-c1ccc(F)cc1)c(-c1ccncc1)n2Cc1ccc(Cl)cc1F` [Example 74] the value was less than 30 nM; for `N#Cc1cc(F)ccc1Cn1c2c(c(-c3cc(Cl)cc(Cl)c3)c1-c1ccncc1)C(=O)NCC2` [Example 138], less than 30 nM.
In the case of `COc1cc(C(F)(F)F)ccc1Cn1c2c(c(-c3ccc(F)cc3)c1-c1ccncc1)C(=O)NCC2` [Example 67], the IC50 fell in the range of 31 to 100 nM.
With `N#Cc1cc(F)ccc1Cn1c2c(c(-c3cncc4ccccc34)c1-c1ccncc1)C(=O)NCC2` [Example 132], the half-maximal inhibitory concentration (IC50) is 100 to 15000 nM.
Turning to `N#Cc1cc(F)ccc1Cn1c2c(c(-c3cccnc3)c1-c1ccnc(Cl)c1)C(=O)NCC2` [Example 11, 2-((2-(2-Chloropyridin-4-yl)-4-oxo-3-(pyridin-3-yl)-4,5,6,7-tetrahydro-1H-pyrrolo[3,2-c]pyridin-1-yl)methyl)-5-fluorobenzonitrile], the IC50 lay in the range of 100 to 15000 nM.
Still for that read-out and setting: in the case of `CN(C)c1cccc(-c2c3c(n(CC4CCOCC4)c2-c2ccncc2)CCNC3=O)c1` [Example 109] it was 100 to 15000 nM.
The same measure, in the same setting: for `CC(C)C(=O)Nc1cc(-c2c(-c3ccc(F)cc3)c3c(n2Cc2ccc(C(F)(F)F)cc2F)CCNC3=O)ccn1` [Example 7, N-(4-(1-(2-Fluoro-4-(trifluoromethyl)benzyl)-3-(4-fluorophenyl)-4-oxo-4,5,6,7-tetrahydro-1H-pyrrolo[3,2-c]pyridin-2-yl)pyridin-2-yl)isobutyramide] the value was 100 to 15000 nM.
In the case of `O=C1NCCc2c1c(-c1ccc(F)cc1)c(-c1ccncc1)n2Cc1ccc(C(F)(F)F)cc1C(F)(F)F` [Example 53], the IC50 was less than 30 nM.
On to `N#Cc1cc(F)ccc1Cn1c2c(c(-c3ccc(F)cc3)c1-c1ccnc(C(F)(F)F)c1)C(=O)NCC2` [Example 16], for which the half-inhibitory concentration (IC50) was 100 to 15000 nM.

Staying with this test, now noted: read-out: IC50 for Inhibition of RIPK3.
As for `N#Cc1cc(F)ccc1Cn1c2c(c(-c3cccc(-c4ccccc4)c3)c1-c1ccncc1)C(=O)NCC2` [Example 120], the IC50 is 100 to 15000 nM.
Same read-out and setting: for `O=C1NCCc2c1c(-c1ccc(F)cc1)c(-c1ccncc1)n2CC1CCCNC1` (stereo not shown) [Example 32] the value was 100 to 15000 nM.
